Test results from paper PMC12380353, “MK-8527 is a novel inhibitor of HIV-1 reverse transcriptase translocation with potential for extended-duration dosing” (PLOS Biology, 2025).

Assays:
[1] = biological target: T1, human DNA polymerase α (Homo sapiens, UniProt P09884); test: Human DNA polymerase α inhibition assay; assay type: biochemical; conditions: top concentration 200 µM
T1 sequence (P09884 1-1462): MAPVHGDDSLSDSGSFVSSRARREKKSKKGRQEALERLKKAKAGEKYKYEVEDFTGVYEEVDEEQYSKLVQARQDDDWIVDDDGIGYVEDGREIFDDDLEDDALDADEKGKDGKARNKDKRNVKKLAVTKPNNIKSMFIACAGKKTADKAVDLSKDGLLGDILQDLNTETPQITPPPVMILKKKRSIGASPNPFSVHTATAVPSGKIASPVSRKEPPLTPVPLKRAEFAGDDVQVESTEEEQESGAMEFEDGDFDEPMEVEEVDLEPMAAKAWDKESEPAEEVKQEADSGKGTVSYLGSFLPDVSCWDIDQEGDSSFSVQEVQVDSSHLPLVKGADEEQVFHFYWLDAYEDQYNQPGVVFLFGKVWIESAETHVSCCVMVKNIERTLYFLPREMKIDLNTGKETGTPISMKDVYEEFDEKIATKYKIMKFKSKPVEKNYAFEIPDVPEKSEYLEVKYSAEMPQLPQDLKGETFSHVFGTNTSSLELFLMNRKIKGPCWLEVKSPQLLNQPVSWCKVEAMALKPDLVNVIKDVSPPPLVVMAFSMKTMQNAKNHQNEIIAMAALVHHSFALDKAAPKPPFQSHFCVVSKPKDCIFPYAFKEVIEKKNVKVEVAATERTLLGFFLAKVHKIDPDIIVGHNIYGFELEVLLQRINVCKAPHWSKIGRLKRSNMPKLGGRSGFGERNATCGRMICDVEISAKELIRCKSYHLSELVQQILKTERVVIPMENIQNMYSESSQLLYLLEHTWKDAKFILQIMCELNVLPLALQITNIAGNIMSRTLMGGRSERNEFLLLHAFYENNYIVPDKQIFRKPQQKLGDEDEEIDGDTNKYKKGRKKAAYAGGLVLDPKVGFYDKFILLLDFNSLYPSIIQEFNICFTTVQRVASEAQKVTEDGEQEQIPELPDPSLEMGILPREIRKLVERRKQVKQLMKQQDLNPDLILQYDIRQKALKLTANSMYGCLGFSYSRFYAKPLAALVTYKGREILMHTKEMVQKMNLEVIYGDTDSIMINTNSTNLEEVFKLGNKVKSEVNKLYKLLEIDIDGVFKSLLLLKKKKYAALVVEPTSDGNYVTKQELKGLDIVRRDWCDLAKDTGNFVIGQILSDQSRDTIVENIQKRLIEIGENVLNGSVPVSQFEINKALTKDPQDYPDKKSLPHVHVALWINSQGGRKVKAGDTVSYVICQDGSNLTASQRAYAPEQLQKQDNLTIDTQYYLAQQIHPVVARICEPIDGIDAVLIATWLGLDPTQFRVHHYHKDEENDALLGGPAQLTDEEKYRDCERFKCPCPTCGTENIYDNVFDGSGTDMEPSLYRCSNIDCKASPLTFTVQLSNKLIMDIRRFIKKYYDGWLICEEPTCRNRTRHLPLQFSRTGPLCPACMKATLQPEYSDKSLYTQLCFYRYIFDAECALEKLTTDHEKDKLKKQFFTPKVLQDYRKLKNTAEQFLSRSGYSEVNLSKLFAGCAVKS
Experimental: The activities of human DNA polymerases α, β, and γ were measured in radiolabeled nucleotide incorporation assays. TP was prepared as a 10-point titration with 3-fold serial dilution in water. Reaction buffers for the DNA polymerase α and β assays both contained 20 mM Tris pH 7.5, 10 mM MgCl2, 50 μM EDTA, 200 μg/mL bovine serum albumin (BSA), 2 mM dithiothreitol (DTT), 1.6 μM each of dNTP (dATP, dCTP, dGTP, and dTTP), 20 μCi/mL [α33P]dATP, 0.1 mg/mL gapped activated fish sperm DNA template, test compound, and 0.005 U/μL DNA polymerase α or 0.0025 U/μL DNA polymerase β. The reaction buffer for DNA polymerase γ contained 20 mM Tris pH 8, 10 mM MgCl2, 50 mM KCl, 100 μg/mL BSA, 2 mM β-mercaptoethanol, 10 μM of each dNTP (dATP, dCTP, dGTP, and dTTP), 20 μCi/mL [α33P]dATP, 0.04 mg/mL gapped activated fish sperm DNA template, test compound, and 0.0003 μg/μL DNA polymerase γ. The 50-μL reactions were incubated at room temperature for 30 min (for β and γ) or 90 min (for α) before terminating with the addition of 50 μL 500 mM EDTA. The reaction mixtures were transferred to a Millipore DE81 filter plate (EMD Millipore; Hayward, CA), washed with 0.5 M sodium phosphate pH 7.0, and dried. After addition of 40 μL scintillant to each well, the incorporation of labeled dATP was determined with a microplate counter (TopCount NXT HTS; PerkinElmer, Shelton, CA, USA).

[2] = system: HIV-1; test: Single-cycle antiviral assay in PBMCs; assay type: cell-based
Experimental: To evaluate the ability of inhibitors to prevent HIV-1 infection in primary cells, human PBMCs obtained from Biological Specialty Corporation (Colmar, PA, USA) were used to assess antiviral activity. The proviral variants used for these studies were generated by site-directed mutagenesis in a proviral vector derived from NL43 [52] that encodes GFP (pNLG1-P2A-GFP). Virus was produced by transfection in 293T cells.
PBMCs were activated with phytohemagglutinin (PHA) at 5 μg/mL in Roswell Park Memorial Institute (RPMI) 1640 medium containing 10% heat-inactivated fetal bovine serum (FBS) for 2–3 days. Compound plates were prepared by dispensing compounds dissolved in DMSO into 384-well poly-d-lysine-coated plates (0.2 μL per well) using an Echo acoustic dispenser (Labcyte; San Jose, CA, USA). Each compound was tested in a 10-point serial 3-fold dilution (typical final concentrations: 5,000 to 0.1 nM). Controls included no inhibitor (DMSO only) and a combination of 3 antiviral agents, efavirenz, indinavir, and the integrase strand transfer inhibitor, L-002254051, at final concentrations of 4 μM each. PHA-activated human PBMCs were washed and resuspended in RPMI 1640 containing 10% NHS and 30 units per mL of interleukin-2 (IL-2) at 6 × 10^5 cells per mL. PBMCs were added to the compound plates and cultured for 24 h at 37 °C, 5% CO2, and 90% humidity. The appropriate HIV-1 variant was added to the PBMCs and cultured at 37 °C, 5% CO2, and 90% humidity for an additional 24 h.
HIV-1–infected cells were quantified by counting the number of GFP cells in each well using an Acumen eX3 scanner (SPT Labtech; Melbourn, UK).

[3] = system: HIV-1; test: microbe, parasite or virus in culture
Experimental: IC50 values were determined, and a persistence ratio was calculated for each compound.
Assay media in each well were then evacuated and the cells resuspended using the gentle setting on the BlueWasher (BlueCatBio; Lebanon, NH, USA). Centrifugation and wash steps were repeated to ensure removal of extracellular compound.
MT4-GFP cells were infected with WT R8 virus, and PBMCs were infected with pNLG1-P2A-GFP. […] IC50 values were determined by nonlinear 4-parameter curve fitting of the data. A persistence ratio was calculated for each compound by dividing the IC50 from variable B (IC50B) by the IC50 from variable A (IC50A).

Row | Structure (SMILES) | IC50 [1] | PBMC IC50 ([2]; HIV-1, single-cycle assay, human PBMCs, 10% NHS) | IC50 ([2]; Human immunodeficiency virus 1, PBMC, read-out: PBMC IC50, HIV-1, single-cycle assay, human PBMCs, 10% NHS) | IC50 ([2]; read-out: PBMC IC50, HIV-1, single-cycle assay, human PBMCs, 10% NHS, listed as MK-8527) | IC50 ([3]; Human immunodeficiency virus 1, 48 h, read-out: Persistence assay IC50B, MT4-GFP cells) | IC50 ([3]; Human immunodeficiency virus 1, read-out: Persistence assay IC50A, MT4-GFP cells)
1 | C#C[C@]1(COP(=O)(O)OP(=O)(O)OP(=O)(O)O)O[C@@H](n2ccc3c(N)nc(Cl)nc32)C[C@@H]1O [MK-8527-TP] | 95000 nM |  |  |  |  | 
2 | C#C[C@]1(CO)O[C@@H](n2ccc3c(N)nc(Cl)nc32)C[C@@H]1O [Compound 12, (2R,3S,5R)-5-(4-amino-2-chloro-7H-pyrrolo[2,3-d]pyrimidin-7-yl)-2-ethynyl-2-(hydroxymethyl)tetrahydrofuran-3-ol] |  | subnanomolar potency | 0.2 nM | 0.21 ± 0.09 nM | 223 ± 104 nM | 7.2 ± 2.3 nM
